“And” between values parts separate entries of the source, which are not always exact repeats. Identical values can stand only once. Like-named read-outs stand apart in the source and are kept apart here.
Biological target: T1, PfCRT^Dd2_F145I (Plasmodium falciparum, UniProt Q8IBZ9, A220S/F145I/I356T/K76T/M74I/N326S/N75E/Q271E/R371I)
T1 construct: expressed in transfected cells; host or cells: Xenopus laevis oocytes injected with in vitro transcribed RNA (pSP64T)
T1 sequence (Q8IBZ9 1-424 M74I/N75E/K76T/F145I/A220S/Q271E/N326S/I356T/R371I): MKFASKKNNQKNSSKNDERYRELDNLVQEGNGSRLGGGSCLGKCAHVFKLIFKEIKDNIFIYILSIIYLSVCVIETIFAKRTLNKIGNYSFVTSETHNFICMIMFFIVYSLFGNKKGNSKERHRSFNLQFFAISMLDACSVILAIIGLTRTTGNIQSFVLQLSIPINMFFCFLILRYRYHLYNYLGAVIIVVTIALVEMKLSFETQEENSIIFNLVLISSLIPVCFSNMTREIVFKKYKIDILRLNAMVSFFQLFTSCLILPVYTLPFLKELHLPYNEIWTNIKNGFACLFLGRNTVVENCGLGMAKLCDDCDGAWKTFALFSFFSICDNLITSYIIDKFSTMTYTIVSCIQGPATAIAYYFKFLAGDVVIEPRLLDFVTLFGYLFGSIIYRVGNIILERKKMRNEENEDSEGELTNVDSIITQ
Assay: Competition kinetics of drug transport (radiolabeled substrate plus cold inhibitor), PfCRT^Dd2_F145I-expressing oocytes
Type: cell-based
Details: for Vmax, maximal velocity of drug transport: global fit; for β, partiality factor: factor on transport of the labeled drug by the other drug
Experimental: To further characterize the kinetic relationship between CQ and PPQ, we performed a series of competition reactions. To this end, water-injected oocytes and PfCRT-expressing oocytes were incubated in medium containing one of seven concentrations of radio-labeled CQ and one of six concentrations of cold PPQ for 60 min before the amount of radio-labeled CQ uptake was determined. The rate of PfCRT-mediated CQ uptake was calculated for each condition by subtracting the corresponding value obtained for water-injected oocytes from those of PfCRT-expressing oocytes. The results were analyzed as a function of the CQ concentration (Fig 4A) and 16 different models of substrate competition were globally fit to the data by the least-squares method, using Python. The models were ranked, according to their Akaike information criterion difference (ΔAICC) and their Akaike weight (Fig 4B), with the most plausible model being the one with the lowest AICC (ΔAICC = 0) and the highest Akaike weight.
A complementary set of experiments was undertaken to investigate the kinetic mechanism by which PfCRT^Dd2_F145I accepts CQ and PPQ (Fig 6). […] These included a global fit of the substrate competition data to the 16 kinetic models (Fig 6), analysis of the secondary plots (Vmax,app and Vmax,app/KM,app as a function of the inhibitor concentration) (Fig 7A), a fractional velocity plot analysis (Fig 7B) and a comparison of the experimental data with the modelled data using the noncompetitive inhibition equation (Fig 7C to 7F). […] The fractional velocity plot illustrated the partial character of the noncompetitive inhibition mechanism by yielding a partiality factor β^CQ = 0.31 ± 0.04, by which PPQ reduces the transport velocity of CQ (Fig 7B). […] A 3D model of the kinetics between PfCRT^Dd2_F145I, CQ and PPQ, and analyses of the residuals as a function of substrate and inhibitor concentrations confirmed that the model was also an appropriate explanation for the mutant transporter (Fig 7C to 7F).
Drug transport assays were performed as previously described. Briefly, measurements of radiolabeled drug uptake were made over 1 h, unless otherwise specified. […] Where specified, one or more unlabeled drugs were also present at the indicated concentrations. The direction of drug transport in the assays is from the extracellular medium (pH 6) into the oocyte cytosol (pH 7.2), which corresponds to the efflux of CQ or PPQ from the acidic digestive vacuole (pH 5.2) into the parasite cytosol (pH 7.2). The uptake assays were terminated by removing the oocytes from the reaction medium and washing them three times with 2 mL of ice-cold ND96 buffer. Each oocyte was transferred to a separate scintillation vial and lysed by the addition of 200 μL of a 5% SDS solution. The radioactivity in the sample was measured using a liquid scintillation analyser Tri-Carb 4910 TR (PerkinElmer). Water-injected oocytes were analyzed in parallel as a negative control. The buffer from each condition was measured in duplicate in parallel to each experiment to transform counts per minute into pmol of drug. Drug uptake attributable to PfCRT was determined by subtracting the background uptake from water-injected oocytes from that of PfCRT-expressing oocytes. In all cases, at least three independent experiments were performed on oocytes from different frogs, and for each condition in an experiment, measurements were made from 10 oocytes per treatment.
The following equations were adopted from Segel (1993), and the reader is referred to that text for the assumptions made in the author’s approach in the derivation of each equation [31]. The concentration of substrate is denoted as [S1] and the concentration of the inhibiting substrate is denoted as [S2]. KS1 and KS2 are the dissociation constants for the respective substrate-protein complexes.
Analyses of the kinetic data were performed using SigmaPlot version 13.0 and Python. […]

## Clc1ccc2c(N3CCN(CCCN4CCN(c5ccnc6cc(Cl)ccc56)CC4)CC3)ccnc2c1 [PPQ, piperaquine]
500 µM PPQ, 400 µM CQ
  PfCRTDd2_F145I-mediated PPQ transport: 83.51 pmol oocyte-1 h-1 and 92.59 pmol oocyte-1 h-1
1/[PPQ] 0.002000 µM-1
  v / (Vmax - v): 0.4488
1/[PPQ] 0.002857 µM-1
  v / (Vmax - v): 0.4948
1/[PPQ] 0.005000 µM-1
  v / (Vmax - v): 0.5591
1/[PPQ] 0.008000 µM-1
  v / (Vmax - v): 0.7269
1/[PPQ] 0.020000 µM-1
  v / (Vmax - v): 0.8760
16 models, ΔAICC, Akaike weight, secondary plots
  most plausible inhibition model: partial noncompetitive inhibition
Mixed (Partial) model, drug as radiolabeled substrate
  Vmax, maximal velocity of drug transport: 150 ± 5 pmol oocyte^-1 h^-1
Mixed (Partial) model, drug as cold inhibitor, read-out: KS, dissociation constant for the PfCRT-substrate complex
  Kd: 160 ± 40 µM
Mixed (Partial) model, drug as radiolabeled substrate, read-out: KS, dissociation constant for the PfCRT-substrate complex
  Kd: 128 ± 11 µM
Mixed (Partial) model
  β, partiality factor: 0.64 ± 0.09
Mixed (Partial) model, label = radiolabeled substrate, other drug cold inhibitor
  α, KS interaction factor: 1.2 ± 0.3
Noncompetitive (Partial) model, drug as radiolabeled substrate, other drug as cold inhibitor
  Vmax, maximal velocity of drug transport: 152 pmol oocyte^-1 h^-1 and 152 ± 4 pmol oocyte^-1 h^-1
Noncompetitive (Partial) model, drug as cold inhibitor, read-out: KS, dissociation constant for the PfCRT-substrate complex
  Kd: 167 µM and 170 µM
Noncompetitive (Partial) model, drug as radiolabeled substrate, read-out: KS, dissociation constant for the PfCRT-substrate complex
  Kd: 134 ± 8 µM
Noncompetitive (Partial) model
  β, partiality factor: 0.61 and 0.61 ± 0.07
[CQ] 0 µM
  KMapp ([3H]PPQ + CQ): 124.39 µM
  Vmaxapp ([3H]PPQ + CQ): 148.37 pmol oocyte-1 h-1
  Vmaxapp/KMapp ([3H]PPQ + CQ): 1.1929 h⁻¹
[CQ] 25 µM
  KMapp ([3H]PPQ + CQ): 139.84 µM
  Vmaxapp ([3H]PPQ + CQ): 149.64 pmol oocyte-1 h-1
  Vmaxapp/KMapp ([3H]PPQ + CQ): 1.0701 h⁻¹
[CQ] 50 µM
  KMapp ([3H]PPQ + CQ): 130.94 µM
  Vmaxapp ([3H]PPQ + CQ): 139.65 pmol oocyte-1 h-1
  Vmaxapp/KMapp ([3H]PPQ + CQ): 1.0665 h⁻¹
[CQ] 125 µM
  KMapp ([3H]PPQ + CQ): 131.31 µM
  Vmaxapp ([3H]PPQ + CQ): 130.07 pmol oocyte-1 h-1
  Vmaxapp/KMapp ([3H]PPQ + CQ): 0.9905 h⁻¹
[CQ] 200 µM
  KMapp ([3H]PPQ + CQ): 138.10 µM
  Vmaxapp ([3H]PPQ + CQ): 125.38 pmol oocyte-1 h-1
  Vmaxapp/KMapp ([3H]PPQ + CQ): 0.9079 h⁻¹
[CQ] 400 µM
  KMapp ([3H]PPQ + CQ): 147.48 µM
  Vmaxapp ([3H]PPQ + CQ): 117.65 pmol oocyte-1 h-1
  Vmaxapp/KMapp ([3H]PPQ + CQ): 0.7978 h⁻¹
Secondary plot, half-maximal inhibitory concentration of Vmax,app versus inhibitor concentration, read-out: αKS, dissociation constant between the drug and the PfCRT complex with the other drug
  Kd: 170 ± 30 µM
Secondary plot, half-maximal inhibitory concentration of Vmax,app/KM,app versus inhibitor concentration, read-out: KS, dissociation constant between the drug and PfCRT
  Kd: 170 ± 50 µM
Secondary plots, label = prebound drug
  α (αKS divided by KS): 0.8 ± 0.7

Reference: article PMC10281575, “PfCRT mutations conferring piperaquine resistance in falciparum malaria shape the kinetics of quinoline drug binding and transport” (PLOS Pathogens, 2023)
